Test results taken from patent US20240269298A1, “PHOSPHONYL DERIVATIVE, AND COMPOSITION AND PHARMACEUTICAL APPLICATION THEREOF” (XIZANG HAISCO PHARMACEUTICAL CO., LTD., priority 2021, published 2024).
Read-outs that look alike come from different tables or passages of the source.

Columns and labels:
A431 (EGFR-WT) cells = experiment: Inhibitory activity on proliferation of A431 (EGFR-WT) cells (CTG, 72 h); format: cell-based; conditions: Homo sapiens, A-431
Method in brief: (§1)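 IC50 values come from S-shaped dose-survival fits of CTG signal expressed as % of vehicle. Compound exposure lasted 72 h at 37 °C with 0.1% DMSO; seeding was 3000 A431 cells/well in DMEM+10% FBS and 1000 NCI-H1975 cells/well in RPMI1640+10% FBS.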

[1] = Pharmacokinetic test in mice; format: in vivo; conditions: male, ICR, mouse, po, administration i.g. (10 mg/kg), plasma
Experimental: Test objective: In this experiment, a single dose of test compounds was administered to ICR mice intravenously and intragastrically, the concentrations of the test compounds in plasma of mice were measured, and the pharmacokinetic characteristics and bioavailability of the test compounds in mice were evaluated.
Experimental animals: male ICR mice, 20-25 g, purchased from BEIJING HFK BIOSCIENCE CO., LTD. with the laboratory animal production license number of SCXK (JING) 2019-0008; or purchased from CHENGDU DDOSSY EXPERIMENTAL ANIMALS CO., LTD. (SCXK (CHUAN) 2020-030); or purchased from HUNAN SJA LABORATORY ANIMAL CO., LTD. (SCXK (XIANG) 2019-0004).
Experimental method: on the day of the experiment, ICR mice were randomly grouped according to their body weights. The mice were fasted with water available for 12 to 14 hours one day before the administration, and were fed 4 hours after the administration.
Sampling: before and after the administration, blood was taken from the orbits of the mice under isoflurane anesthesia, and placed in an EDTAK2 centrifuge tube. Centrifugation was carried out at 5000 rpm at 4° C. for 10 min, and the plasma was collected.
Time points for plasma collection in G1&G2 groups: 0, 5 min, 15 min, 30 min, 1h, 2h, 4h, 6h, 8h, and 24 h; • time points for plasma collection in G3 group: 0, 5 min, 15 min, 30 min, 1 h, 2 h, 4 h, 6h, 8h, and 24 h; • before analysis and detection, all samples were stored at −80° C. The samples were analyzed quantitatively by LC-MS/MS.

[2] = system: NCI-H1975 (EGFR-L858R-T790M) cells; experiment: Inhibitory activity on proliferation of NCI-H1975 (EGFR-L858R-T790M) cells (CTG, 72 h); format: cell-based; conditions: Homo sapiens
Method in brief: as §1

[3] = read-out: IC50 (value in brackets)

Row | Structure (SMILES) | IC50 (A431 (EGFR-WT) cells) | AUC(0-t) [1] | IC50 ([2]; read-out: IC50 (class symbol)) | IC50 [2, 3] | AUC [1] | half-life [1]
1 | COc1cc(N2CCC(N3CCN(CC4CCN(c5ccc6c(c5)C(=O)N(C5CCC(=O)NC5=O)C6=O)CC4)CC3)CC2)c(-c2cnn(C)c2)cc1Nc1ncc(Br)c(Nc2ccc3ccccc3c2P(C)(C)=O)n1 (stereo not drawn) [Compound 71, 5-(4-((4-(1-(4-((5-bromo-4-((1-(dimethylphosphoryl)naphthalen-2-yl)amino)pyrimidin-2-yl)amino)-5-methoxy-2-(1-methyl-1H-pyrazol-4-yl)phenyl)piperidin-4-yl)piperazin-1-yl)methyl)piperidin-1-yl)-2-(2,6-dioxopiperidin-3-yl)isoindoline-1,3-dione] | ≥ 10000 nM | 24700 ng·h/mL | < 100 nM | 29 nM |  | 
2 | COc1cc(N2CCC(CN3CCC4(CC3)CCN(c3ccc5c(c3)C(=O)N(C3CCC(=O)NC3=O)C5=O)CC4)CC2)c(-c2cnn(C)c2)cc1Nc1ncc(Br)c(Nc2ccc(-c3ccccc3F)cc2P(C)(C)=O)n1 (stereo not drawn) [Compound 95, 5-(9-((1-(4-((5-bromo-4-((3-(dimethylphosphoryl)-2′-fluoro-[1,1′-biphenyl]-4-yl)amino)pyrimidin-2-yl)amino)-5-methoxy-2-(1-methyl-1H-pyrazol-4-yl)phenyl)piperidin-4-yl)methyl)-3,9-diazaspiro[5.5]undecan-3-yl)-2-(2,6-dioxopiperidin-3-yl)isoindoline-1,3-dione] | ≥ 10000 nM | 20800 ng·h/mL | < 100 nM | 49 nM |  | 
3 | COc1cc(N2CCC(N3CCN(CC4CCN(c5cc6c(cc5F)C(=O)N(C5CCC(=O)NC5=O)C6=O)CC4)CC3)CC2)c(-c2cnn(C)c2)cc1Nc1ncc(Br)c(Nc2ccc(-c3ccccc3)cc2P(C)(C)=O)n1 (stereo not drawn) [Compound 87, 5-(4-((4-(1-(4-((5-bromo-4-((3-(dimethylphosphoryl)-[1,1′-biphenyl]-4-yl)amino)pyrimidin-2-yl)amino)-5-methoxy-2-(1-methyl-1H-pyrazol-4-yl)phenyl)piperidin-4-yl)piperazin-1-yl)methyl)piperidin-1-yl)-2-(2,6-dioxopiperidin-3-yl)-6-fluoroisoindoline-1,3-dione] | ≥ 10000 nM | 2340 ng·h/mL | < 100 nM | 45 nM |  | 
4 | COc1cc(N2CCN(c3ccc4c(c3)C(=O)N(C3CCC(=O)NC3=O)C4=O)CC2)c(-c2cnn(C)c2)cc1Nc1ncc(Cl)c(Nc2ccc(-c3ccccc3)cc2P(C)(C)=O)n1 (stereo not drawn) [Compound 98, 5-(4-(4-((5-chloro-4-((3-(dimethylphosphoryl)-[1,1′-biphenyl]-4-yl)amino)pyrimidin-2-yl)amino)-5-methoxy-2-(1-methyl-1H-pyrazol-4-yl)phenyl)piperazin-1-yl)-2-(2,6-dioxopiperidin-3-yl)isoindoline-1,3-dione] | ≥ 10000 nM |  | 100 to 500 nM | 101 nM | 69800 ng·h/mL | 10.9 h
5 | COc1cc(N2CCC(N3CCN(C4CC5(CCN(c6ccc7c(c6)C(=O)N(C6CCC(=O)NC6=O)C7=O)CC5)C4)CC3)CC2)c(-c2cnn(C)c2)cc1Nc1ncc(Cl)c(Nc2ccc(-c3ccccc3)cc2P(C)(C)=O)n1 (stereo not drawn) [Compound 91] | ≥ 10000 nM | 7580 ng·h/mL | < 100 nM | 78 nM |  | 
6 | COc1cc(N2CCC3(CCN(c4ccc5c(c4)C(=O)N(C4CCC(=O)NC4=O)C5=O)CC3)CC2)c(-c2cnn(C)c2)cc1Nc1ncc(Br)c(Nc2ccc(F)cc2P(C)(C)=O)n1 (stereo not drawn) [Compound 163, 5-(9-(4-((5-bromo-4-((2-(dimethylphosphoryl)-4-fluorophenyl)amino)pyrimidin-2-yl)amino)-5-methoxy-2-(1-methyl-1H-pyrazol-4-yl)phenyl)-3,9-diazaspiro[5.5]undecan-3-yl)-2-(2,6-dioxopiperidin-3-yl)isoindoline-1,3-dione] | ≥ 10000 nM |  | < 100 nM | 76 nM | 93100 ng·h/mL | 6.68 h
7 | COc1cc(N2CCC(N3CCN(CC4CCN(c5ccc6c(c5)C(=O)N(C5CCC(=O)NC5=O)C6=O)CC4)CC3)CC2)c(-c2cnn(C)c2)cc1Nc1ncc(Cl)c(Nc2ccc(-c3ccccc3)cc2P(C)(C)=O)n1 (stereo not drawn) [Compound 58, 5-(4-((4-(1-(4-((5-chloro-4-((3-(dimethylphosphoryl)-[1,1′-biphenyl]-4-yl)amino)pyrimidin-2-yl)amino)-5-methoxy-2-(1-methyl-1H-pyrazol-4-yl)phenyl)piperidin-4-yl)piperazin-1-yl)methyl)piperidin-1-yl)-2-(2,6-dioxopiperidin-3-yl)isoindoline-1,3-dione] | ≥ 10000 nM | 16300 ng·h/mL | < 100 nM | 72 nM |  | 
8 | COc1cc(N2CCN(c3ccc4c(c3)C(=O)N(C3CCC(=O)NC3=O)C4=O)CC2)c(-c2cnn(C)c2)cc1Nc1ncc(Br)c(Nc2ccc(-c3ccccc3)cc2P(C)(C)=O)n1 (stereo not drawn) [Compound 80, 5-(4-(4-((5-bromo-4-((3-(dimethylphosphoryl)-[1,1′-biphenyl]-4-yl)amino)pyrimidin-2-yl)amino)-5-methoxy-2-(1-methyl-1H-pyrazol-4-yl)phenyl)piperazin-1-yl)-2-(2,6-dioxopiperidin-3-yl)isoindoline-1,3-dione] | ≥ 10000 nM |  | 100 to 500 nM | 129 nM | 81900 ng·h/mL | 10.4 h
9 | COc1cc(N2CCC(N3CCC4(CCCN(c5cc6c(cc5F)C(=O)N(C5CCC(=O)NC5=O)C6=O)C4)CC3)CC2)c(-c2cnn(C)c2)cc1Nc1ncc(Br)c(Nc2ccc(-c3ccccc3)cc2P(C)(C)=O)n1 (stereo not drawn) [Compound 88, 5-(9-(1-(4-((5-bromo-4-((3-(dimethylphosphoryl)-[1,1′-biphenyl]-4-yl)amino)pyrimidin-2-yl)amino)-5-methoxy-2-(1-methyl-1H-pyrazol-4-yl)phenyl)piperidin-4-yl)-2,9-diazaspiro[5.5]undecan-2-yl)-2-(2,6-dioxopiperidin-3-yl)-6-fluoroisoindoline-1,3-dione] | ≥ 10000 nM | 5120 ng·h/mL | < 100 nM | 67 nM |  | 
10 | COc1cc(N2CCC(N3CCN(CC4CCN(c5ccc6c(c5)C(=O)N(C5CCC(=O)NC5=O)C6=O)C4)CC3)CC2)c(-c2cnn(C)c2)cc1Nc1ncc(Br)c(Nc2ccc(-c3ccccc3)cc2P(C)(C)=O)n1 (stereo not drawn) [Compound 76, 5-(3-((4-(1-(4-((5-bromo-4-((3-(dimethylphosphoryl)-[1,1′-biphenyl]-4-yl)amino)pyrimidin-2-yl)amino)-5-methoxy-2-(1-methyl-1H-pyrazol-4-yl)phenyl)piperidin-4-yl)piperazin-1-yl)methyl)pyrrolidin-1-yl)-2-(2,6-dioxopiperidin-3-yl)isoindoline-1,3-dione] | ≥ 10000 nM | 19600 ng·h/mL | < 100 nM | 31 nM |  | 
11 | COc1cc(N2CCC(CN3CCC4(CC3)CCN(c3ccc5c(c3)C(=O)N(C3CCC(=O)NC3=O)C5=O)CC4)CC2)c(-c2cnn(C)c2)cc1Nc1ncc(Cl)c(Nc2ccc(-c3ccccc3)cc2P(C)(C)=O)n1 (stereo not drawn) [Compound 48, 5-(9-((1-(4-((5-chloro-4-((3-(dimethylphosphoryl)-[1,1′-biphenyl]-4-yl)amino)pyrimidin-2-yl)amino)-5-methoxy-2-(1-methyl-1H-pyrazol-4-yl)phenyl)piperidin-4-yl)methyl)-3,9-diazaspiro[5.5]undecan-3-yl)-2-(2,6-dioxopiperidin-3-yl)isoindoline-1,3-dione] | ≥ 10000 nM | 7790 ng·h/mL | < 100 nM | 32 nM |  | 
12 | COc1cc(N2CCC(N3CCN(CC4CCN(c5ccc6c(c5)C(=O)N(C5CCC(=O)NC5=O)C6=O)CC4)CC3)CC2)c(-c2cnn(C)c2)cc1Nc1ncc(Br)c(Nc2ccc(C)c(C)c2P(C)(C)=O)n1 (stereo not drawn) [Compound 73, 5-(4-((4-(1-(4-((5-bromo-4-((2-(dimethylphosphoryl)-3,4-dimethylphenyl)amino)pyrimidin-2-yl)amino)-5-methoxy-2-(1-methyl-1H-pyrazol-4-yl)phenyl)piperidin-4-yl)piperazin-1-yl)methyl)piperidin-1-yl)-2-(2,6-dioxopiperidin-3-yl)isoindoline-1,3-dione] | ≥ 10000 nM | 13700 ng·h/mL | < 100 nM | 26 nM |  | 
